Reference: ChEMBL document CHEMBL1201862, “PubChem BioAssay data set” (2004)
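Grown in 96-well plates, cells were treated for 48 hours with each compound at five concentrations. Insufficient inhibition: endpoint recorded as highest concentration tested. Here, GI50 denotes the concentration required for 50% inhibition of growth.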 Active and inactive are the calls of the source. Rule as the data show it: active = GI50 up to about 1.1 µM and inactive = higher.

Columns and labels:
Assay in all cases: NCI anticancer screen, dose series, 48 h
786-0 = system: 786-0
CAKI-1 = system: CAKI-1
DLD-1 = system: DLD-1
DMS-273 = system: DMS-273
EKVX = system: EKVX
HCC 2998 = system: HCC 2998
HCT-116 = system: HCT-116
HCT-15 = system: HCT-15
HOP-18 = system: HOP-18
HOP-62 = system: HOP-62
HOP-92 = system: HOP-92
HT-29 = system: HT-29
IGROV-1 = system: IGROV-1
K562 = system: K562
KM-20L2 = system: KM-20L2
KM12 = system: KM12
LOX IMVI = system: LOX IMVI
LXFL 529 = system: LXFL 529
M14 = system: M14
Malme-3M = system: Malme-3M
NCI-H522 = system: NCI-H522
OVCAR-3 = system: OVCAR-3
OVCAR-4 = system: OVCAR-4
OVCAR-8 = system: OVCAR-8
RXF 393 = system: RXF 393
SF-268 = system: SF-268
SF-295 = system: SF-295
SF-539 = system: SF-539
SK-MEL-28 = system: SK-MEL-28
SK-MEL-2 = system: SK-MEL-2
SNB-19 = system: SNB-19
SNB-78 = system: SNB-78
SW-620 = system: SW-620
TK-10 = system: TK-10
U-251 = system: U-251
UACC-257 = system: UACC-257
UACC-62 = system: UACC-62
UO-31 = system: UO-31
A498 = system: A498
A549 = system: A549
ACHN = system: ACHN
CCRF-CEM = system: CCRF-CEM
COLO 205 = system: COLO 205
DMS-114 = system: DMS-114
HL-60 = system: HL-60
MOLT-4 = system: MOLT-4
NCI-H226 = system: NCI-H226
NCI-H23 = system: NCI-H23
NCI-H460 = system: NCI-H460
OVCAR-5 = system: OVCAR-5
RPMI-8226 = system: RPMI-8226
SN12C = system: SN12C
SNB-75 = system: SNB-75
SR = system: SR
M19-MEL = system: M19-MEL
SK-MEL-5 = system: SK-MEL-5
SK-OV-3 = system: SK-OV-3
XF498 = system: XF498
BT-549 = system: BT-549
DU-145 = system: DU-145
Hs-578T = system: Hs-578T
MCF7 = system: MCF7
MDA-MB-231 = system: MDA-MB-231
MDA-MB-435 = system: MDA-MB-435
MDA-N = system: MDA-N
NCI/ADR-RES = system: NCI/ADR-RES
PC-3 = system: PC-3
T47D = system: T47D

Measured: GI50

COc1cc(C2c3cc4c(cc3[C@@H](NCCN3CCOCC3)C3COC(=O)[C@H]23)OCO4)cc(OC)c1O (stereo partly specified)
inactive: 786-0 1.19 µM | CAKI-1 1.97 µM | DLD-1 6.18 µM | EKVX 14.2 µM | HCC 2998 1.97 µM | HCT-116 3.01 µM | HOP-18 2.81 µM | HT-29 4.65 µM | IGROV-1 8.11 µM | K562 5.56 µM | KM-20L2 2.96 µM | KM12 2.42 µM | LXFL 529 11.3 µM | M14 2.57 µM | Malme-3M 2.31 µM | NCI-H522 2.51 µM | OVCAR-3 8.02 µM | OVCAR-4 17.8 µM | OVCAR-8 2.18 µM | RXF 393 2.3 µM | SF-268 1.56 µM | SF-295 1.35 µM | SK-MEL-28 3.71 µM | SK-MEL-2 4.17 µM | SNB-19 2.51 µM | SNB-78 16.5 µM | SW-620 1.23 µM | TK-10 7.85 µM | UACC-257 3.23 µM | UACC-62 1.21 µM | UO-31 1.77 µM
active: DMS-273 0.437 µM | HOP-62 0.541 µM | HOP-92 1.04 µM | LOX IMVI 0.962 µM | SF-539 0.836 µM | U-251 0.906 µM
1.65 µM: HCT-15

Cc1ccc(S(=O)(=O)c2ccc(NC(=O)SCCC(=O)O)cc2)cc1
inactive: 786-0 > 100 µM | A498 > 100 µM | A549 > 100 µM | ACHN > 100 µM | CAKI-1 > 100 µM | CCRF-CEM > 100 µM | COLO 205 > 100 µM | DLD-1 > 100 µM | DMS-114 > 100 µM | DMS-273 > 100 µM | EKVX > 100 µM | HCC 2998 > 100 µM | HCT-116 > 100 µM | HL-60 > 100 µM | HOP-62 > 100 µM | HT-29 > 100 µM | IGROV-1 5.14 µM | K562 > 100 µM | KM-20L2 > 100 µM | KM12 > 100 µM | LOX IMVI > 100 µM | LXFL 529 > 100 µM | M14 > 100 µM | MOLT-4 > 100 µM | NCI-H226 > 100 µM | NCI-H23 > 100 µM | NCI-H460 > 100 µM | NCI-H522 > 100 µM | OVCAR-3 > 100 µM | OVCAR-4 > 100 µM | OVCAR-5 > 100 µM | OVCAR-8 > 100 µM | RPMI-8226 > 100 µM | RXF 393 > 100 µM | SF-268 > 100 µM | SF-295 > 100 µM | SF-539 > 100 µM | SK-MEL-28 > 100 µM | SK-MEL-2 > 100 µM | SN12C > 100 µM | SNB-19 > 100 µM | SNB-75 17.8 µM | SNB-78 > 100 µM | SR > 100 µM | SW-620 > 100 µM | TK-10 > 100 µM | U-251 > 100 µM | UACC-257 > 100 µM | UACC-62 > 100 µM | UO-31 > 100 µM
> 100 µM: HCT-15

Cc1cc2c(c(C(=O)O)c1C)-c1cccc(Cl)c1C2=O
inactive: 786-0 > 100 µM | A549 > 100 µM | ACHN > 100 µM | CAKI-1 > 100 µM | CCRF-CEM > 100 µM | COLO 205 > 100 µM | DLD-1 > 100 µM | DMS-114 > 100 µM | DMS-273 > 100 µM | EKVX > 100 µM | HCC 2998 > 100 µM | HOP-62 > 100 µM | HT-29 > 100 µM | IGROV-1 > 100 µM | K562 > 100 µM | KM-20L2 > 100 µM | KM12 > 100 µM | LOX IMVI > 100 µM | LXFL 529 > 100 µM | M14 > 100 µM | M19-MEL > 100 µM | MOLT-4 > 100 µM | Malme-3M > 100 µM | NCI-H226 > 100 µM | NCI-H23 > 100 µM | NCI-H460 > 100 µM | NCI-H522 > 100 µM | OVCAR-3 > 100 µM | OVCAR-4 > 100 µM | OVCAR-5 > 100 µM | OVCAR-8 > 100 µM | RPMI-8226 > 100 µM | RXF 393 > 100 µM | SF-268 > 100 µM | SF-295 > 100 µM | SK-MEL-28 > 100 µM | SK-MEL-2 > 100 µM | SK-MEL-5 > 100 µM | SK-OV-3 > 100 µM | SN12C > 100 µM | SNB-19 > 100 µM | SNB-75 > 100 µM | SNB-78 > 100 µM | SW-620 > 100 µM | TK-10 > 100 µM | U-251 > 100 µM | UACC-257 > 100 µM | UACC-62 > 100 µM | UO-31 > 100 µM | XF498 > 100 µM
> 100 µM: HCT-15

CCOC(=O)C1=C(C(=O)OCC)C2c3ccccc3C=CN2C(C(=O)OCC)=C(SC)S1 (stereo unspecified)
79.8 µM: HCT-15
inactive: 786-0 > 100 µM | A549 47.6 µM | ACHN > 100 µM | CAKI-1 > 100 µM | CCRF-CEM 30.8 µM | COLO 205 91.6 µM | DLD-1 > 100 µM | DMS-114 52.5 µM | DMS-273 63.1 µM | EKVX > 100 µM | HCC 2998 > 100 µM | HCT-116 50.7 µM | HL-60 25.9 µM | HOP-62 > 100 µM | HT-29 > 100 µM | IGROV-1 > 100 µM | K562 41.8 µM | KM-20L2 > 100 µM | LOX IMVI 97.3 µM | LXFL 529 51.2 µM | M14 89.1 µM | M19-MEL > 100 µM | MOLT-4 21.6 µM | Malme-3M > 100 µM | NCI-H226 > 100 µM | NCI-H23 87.1 µM | NCI-H460 > 100 µM | NCI-H522 24.4 µM | OVCAR-3 96.2 µM | OVCAR-5 > 100 µM | OVCAR-8 > 100 µM | RPMI-8226 17.8 µM | RXF 393 73.1 µM | SF-268 > 100 µM | SF-295 > 100 µM | SF-539 > 100 µM | SK-MEL-28 > 100 µM | SK-MEL-2 > 100 µM | SK-MEL-5 32.4 µM | SK-OV-3 > 100 µM | SN12C 98.4 µM | SNB-19 > 100 µM | SNB-75 > 100 µM | SNB-78 79.1 µM | SR 19.3 µM | SW-620 92.9 µM | TK-10 > 100 µM | U-251 50.7 µM | UACC-257 42.5 µM | UACC-62 58.1 µM | UO-31 74.1 µM

CC1=NN(c2cccc(Cl)c2)C2(C1)SCC(=O)N2c1nc2ccccc2s1 (stereo unspecified)
inactive: 786-0 21.8 µM | A498 27.9 µM | A549 31.2 µM | ACHN 26.8 µM | BT-549 29.3 µM | CAKI-1 32.6 µM | CCRF-CEM 21.8 µM | COLO 205 18.1 µM | DU-145 24.6 µM | EKVX 29.7 µM | HCC 2998 17.9 µM | HCT-116 17.9 µM | HL-60 22.2 µM | HOP-62 19.4 µM | HOP-92 32.8 µM | HT-29 27.1 µM | Hs-578T 41.1 µM | IGROV-1 21.9 µM | K562 18.2 µM | KM12 25.5 µM | LOX IMVI 20.2 µM | M14 26.7 µM | MCF7 25.6 µM | MDA-MB-231 19.1 µM | MDA-MB-435 25 µM | MDA-N 33 µM | MOLT-4 16.1 µM | Malme-3M 34.3 µM | NCI-H226 11.6 µM | NCI-H23 29.2 µM | NCI-H460 21.6 µM | NCI-H522 25.9 µM | NCI/ADR-RES 32.1 µM | OVCAR-3 16.2 µM | OVCAR-4 34 µM | OVCAR-5 37 µM | OVCAR-8 35.6 µM | PC-3 23.3 µM | RPMI-8226 16.3 µM | RXF 393 17.7 µM | SF-268 31.2 µM | SF-295 23.2 µM | SF-539 22.8 µM | SK-MEL-28 32.8 µM | SK-MEL-2 22.3 µM | SK-MEL-5 17.5 µM | SK-OV-3 21.6 µM | SN12C 22.1 µM | SNB-19 36 µM | SNB-75 13.2 µM | SR 17.9 µM | SW-620 32.6 µM | T47D 19.8 µM | TK-10 30.2 µM | U-251 27 µM | UACC-257 22.4 µM | UACC-62 29.5 µM | UO-31 21.1 µM
33.2 µM: HCT-15
